Results from BigSolDB 2.1.

CCCCS(=O)(=O)N[C@@H](Cc1ccc(OCCCCC2CCNCC2)cc1)C(=O)O
solubility (mole fraction)
Details | 278.15 K | 283.15 K | 288.15 K | 293.15 K | 298.15 K | 303.15 K | 308.15 K | 313.15 K | 318.15 K | 323.15 K
in ethanol | 0.000129 | 0.000156 | 0.000183 | 0.000216 | 0.00025 | 0.000288 | 0.000329 | 0.000373 | 0.000427 | 0.00049
in ethylene glycol | 4.7e-05 | 5.7e-05 | 6.77e-05 | 8.02e-05 | 9.46e-05 | 0.000109 | 0.000125 | 0.000142 | 0.00016 | 0.000181
in isopropanol | 7.48e-05 | 9.32e-05 | 0.000108 | 0.00013 | 0.000153 | 0.000176 | 0.0002 | 0.00023 | 0.000265 | 0.000301
in methanol | 0.000306 | 0.000375 | 0.000443 | 0.00052 | 0.000617 | 0.00071 | 0.000836 | 0.000957 | 0.0011 | 0.00125
in water | 9.32e-07 | 1.1e-06 | 1.32e-06 | 1.55e-06 | 1.83e-06 | 2.08e-06 | 2.42e-06 | 2.75e-06 | 3.14e-06 | 3.59e-06
